In patent US12324800B2 (priority 2019, dated 2025):

Key:
[1] = design: key to Phase preferences, Physiological conditions: L, Lamellar; HII, hexagonal; M, micellar; conditions: liquid crystalline unsaturated lipids, cited from earlier work; for Phase preferences, Other conditions: conditions given in the cell
[2] = Rancimat accelerated oxidation test; type: physicochemical
Experimental: To investigate this, accelerated oxidation tests of cannabis oil in the labile soybean oil with and without additional antioxidants were conducted. The Rancimat (Metrohm MG, Herisau, Switzerland) test was used for this purpose as follows. 2 g of oil were placed in a narrow glass flask, heated to 110° C. and air was bubbled through the oil at 20 ml/min. This caused accelerated oxidation. As the liquid oxidized, volatile secondary oxidation products were volatilized and bubbled into room temperature water. This caused them to dissolve in the water, which results in an increase in its electrical conductivity. The conductivity is measured continuously using a standard electrode.

[3] = THC degradation on heating of cannabis oil films (gas-liquid chromatography); conditions: dry films with 14 mg cannabis oil, 1.5 hours at 100° C.
Experimental: Five 1 ml chromatography glass vials were used for this purpose. […] Stock solutions of 0.5% sunflower lecithin (Sunlec25), 0.01% TBHQ and 0.5% lecithin+0.01% TBHQ were prepared.
The chloroform was evaporated under a stream of air until completely dry. […] After the heating period, samples were removed from the oven, allowed to cool to room temperature and then 1 ml of fresh chloroform was added to each vial and capped. Samples were then analyzed by gas-liquid chromatography as described previously. […] A 15 m×0.25 mm internal diameter fused silica column with a 0.20 μm DB5 film thickness was used (Agilent Inc., USA). The oven temperature was maintained at 80° C. for 5 minutes and then programmed to increase from 80 to 300° C. at 12° C./min. […] Split ratio was set at 10:1. Helium, the earlier gas, flowed at an average velocity of 25 cm/s. A flame ionization detector was set at 350° C. with 450 mL/min air and 50 mL/min helium flowing. The separated peaks were analyzed using Open LAB software (Agilent Technologies). The amount of cannabinoid was determined by comparing retention times of the peaks to an internal standard. Tor this analysis, the main THC peak was analyzed.

CC(C)CCC[C@@H](C)[C@H]1CC[C@H]2[C@@H]3CC=C4C[C@@H](O)CC[C@]4(C)[C@H]3CC[C@]12C [Cholesterol, cholesterol, reference compound]
Phase preferences, Other conditions [1]: Induces HII phase in mixed

CC(C)(C)c1cc(O)ccc1O [TBHQ, tert-butylhydroquinone]
increase of induction time ([2]; 0.01% TBHQ added to soybean oil alone): 7.1 h
induction time of oxidation ([2]; 0.01% TBHQ added to soybean oil containing 4.8 mg/g cannabis oil): 15.7 h
induction time of oxidation ([2]; 0.01% TBHQ added to soybean oil containing 0.5% sunflower lecithin and 4.8 mg/g cannabis oil): 28.8 h
increase of induction time of oxidation for every 100 ppm TBHQ added ([2]; soybean oil, 110° C.): 7.1 to 7.2 h

CCCCCc1cc(O)c2c(c1)OC(C)(C)[C@@H]1CCC(C)=C[C@@H]21 [THC, tetrahydrocannabinol]
degradation of THC on heating [3]: significant degradation

Cardiolipin
Phase preferences, Physiological conditions [1]: L
Phase preferences, Other conditions [1]: HII, divalent cations,

Cerebroside
Phase preferences, Physiological conditions [1]: L

Cerebroside sulfate
Phase preferences, Physiological conditions [1]: L

Digalactosyldiglyceride
Phase preferences, Physiological conditions [1]: L

Diglucosyldiglyceride
Phase preferences, Physiological conditions [1]: L

Ganglioside
Phase preferences, Physiological conditions [1]: M

Lysophosphatidylcholine
Phase preferences, Physiological conditions [1]: M

Monogalactosyldiglyceride
Phase preferences, Physiological conditions [1]: HII

Monoglucosyldiglyceride
Phase preferences, Physiological conditions [1]: HII

Phosphatidic acid
Phase preferences, Physiological conditions [1]: L
Phase preferences, Other conditions [1]: HII, divalent cations,

Phosphatidylcholine
Phase preferences, Physiological conditions [1]: L
Phase preferences, Other conditions [1]: HII low hydration and high

Phosphatidylethanolamine
Phase preferences, Physiological conditions [1]: HII
Phase preferences, Other conditions [1]: L, pH ≥ 8.5 low temp

Phosphatidylglycerol
Phase preferences, Physiological conditions [1]: L
Phase preferences, Other conditions [1]: HII, high temp, high salt conc.

Phosphatidylinositol
Phase preferences, Physiological conditions [1]: L

Phosphatidylserine
Phase preferences, Physiological conditions [1]: L
Phase preferences, Other conditions [1]: HII, pH ≤ 3.5

Sphingomyelin
Phase preferences, Physiological conditions [1]: L
